Assay results taken from the Deep4Chem optical property database.

Assay: solvent given as SMILES

- emission maximum (in C1CCOC1): 345 nm
- emission maximum (in C1COCCO1): 342 nm
- emission maximum (in CC#N): 354 nm
- emission maximum (in CC(C)O): 356 nm
- emission maximum (in CCO): 358 nm
- emission maximum (in CO): 367 nm
- emission maximum (in CS(C)=O): 363 nm
- emission maximum (in O): 375 nm
- emission maximum (in OCC(F)(F)F): 364 nm
Structure (SMILES): N#Cc1ccc2cc[nH]c2c1
